In ChEMBL document CHEMBL1159365, “Sesquiterpenoids from Artemisia gilvescens and an anti-MRSA compound” (J Nat Prod, 2003):
≈ marks a conversion by molar mass, not a printed value.

tested on: Staphylococcus aureus; assay: Antimicrobial activity against methicillin-resistant Staphylococcus aureus after 20 hrs; type: functional

**Q.** `CC1=CC(=O)c2c(C)cc3oc(=O)c(C)c-3cc21` was tested. Which MIC did it give?
**A.** The MIC was 1.95 µg/mL (≈ 8.12 µM).

tested on: HCT-116; assay: Cytotoxicity against human HCT116 cells by MTT assay; type: functional, cell-based

**Q.** For `C=C1C(=O)O[C@H]([C@H]2C(=O)C=C[C@@]2(C)O)[C@H]1CCC(C)=O`, which IC50 is on record?
**A.** The IC50 was 6 µM.

**Q.** Which IC50 does the source give for `CC1=CC(=O)c2c(C)cc3oc(=O)c(C)c-3cc21` here?
**A.** Its IC50 is 16 µM.

**Q.** Which IC50 does the source give for `C=C1C(=O)O[C@H]2[C@H]1CC[C@@](C)(O)[C@]13O[C@H]1[C@H]1O[C@@]1(C)[C@H]23` [ARTECANIN] here?
**A.** The IC50 was 14 µM.

**Q.** For `C=C1C(=O)O[C@H](C2=C(C)[C@@H](O)CC2=O)[C@H]1CCC(C)=O` [ISOSECOTANAPARTHOLIDE], which IC50 is on record?
**A.** The IC50 was 13 µM.

**Q.** `C=C1C(=O)O[C@H]([C@@H]2C(=O)C=C[C@@]2(C)O)[C@H]1CCC(C)=O` [SECOTANAPARTHOLIDE A] was tested. Which IC50 did it give?
**A.** Its IC50 is 6 µM.

**Q.** Which IC50 does the source give for `C=C1C(=O)O[C@H]([C@@H]2C(=O)C=C[C@]2(C)O)[C@H]1CCC(C)=O` [SECOTANAPARTHOLIDE B] here?
**A.** Its IC50 is 3.3 µM.
